According to the supplement of paper PMC10307832:

Legend:
Test in all cases: relative viability (nuclei count vs DMSO), 5 days (fraction); higher = more cells survive
LCLC-103H = system: LCLC-103H
Outline: (§1)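 Nuclei were stained with Hoechst during a one-step fixation (final 0.05% Triton X-100, 1% formaldehyde, 1 ug/ml Hoechst) carried out 5 days after dosing, then counted on 4× images. The cells, lung cancer lines in 1536-well plates, had been dosed by pin tool the day after seeding with one drug alone or a fixed anchor-drug dose plus five library-drug doses (not always all listed) in √10 steps. Relative viability is the nuclei count in treated wells divided by that in vehicle wells, and each value is the median of duplicate plates.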

SK-LU-1 = system: SK-LU-1
Outline: as §1

EPLC-272H = system: EPLC-272H
Outline: as §1

NCI-H1915 = system: NCI-H1915
Outline: as §1

NCI-H2405 = system: NCI-H2405
Outline: as §1

ABC-1 = system: ABC-1
Outline: as §1

NCI-H647 = system: NCI-H647
Outline: as §1

NCI-H1395 = system: NCI-H1395
Outline: as §1

NCI-H661 = system: NCI-H661
Outline: as §1

RERF-LC-KJ = system: RERF-LC-KJ
Outline: as §1

NCI-H1793 = system: NCI-H1793
Outline: as §1

O=C(O)CCCCC(CCSCc1ccccc1)SCc1ccccc1 (stereo not given) [CPI-613] + Cc1cc(Nc2cc(N3CCN(C)CC3)nc(Sc3ccc(NC(=O)C4CC4)cc3)n2)n[nH]1 [Tozasertib] (partner 0.1 µM)
relative viability (LCLC-103H; first compound 5 µM): 0.441 | relative viability (LCLC-103H; first compound 15.81 µM): 0.389 | relative viability (LCLC-103H; first compound 50 µM): 0.47 | relative viability (LCLC-103H; first compound 158.11 µM): 0.387 | relative viability (LCLC-103H; first compound 500 µM): 0.424 | relative viability (SK-LU-1; first compound 5 µM): 0.321 | relative viability (SK-LU-1; first compound 15.81 µM): 0.244 | relative viability (SK-LU-1; first compound 50 µM): 0.299 | relative viability (SK-LU-1; first compound 158.11 µM): 0.25 | relative viability (SK-LU-1; first compound 500 µM): 0.195 | relative viability (EPLC-272H; first compound 5 µM): 0.285 | relative viability (EPLC-272H; first compound 15.81 µM): 0.279 | relative viability (EPLC-272H; first compound 50 µM): 0.242 | relative viability (EPLC-272H; first compound 158.11 µM): 0.0813 | relative viability (EPLC-272H; first compound 500 µM): 0.0387 | relative viability (NCI-H1915; first compound 5 µM): 0.44 | relative viability (NCI-H1915; first compound 15.81 µM): 0.4 | relative viability (NCI-H1915; first compound 50 µM): 0.322 | relative viability (NCI-H1915; first compound 158.11 µM): 0.241 | relative viability (NCI-H1915; first compound 500 µM): 0.111 | relative viability (NCI-H2405; first compound 5 µM): 0.75 | relative viability (NCI-H2405; first compound 15.81 µM): 0.616 | relative viability (NCI-H2405; first compound 50 µM): 0.625 | relative viability (NCI-H2405; first compound 158.11 µM): 0.554 | relative viability (NCI-H2405; first compound 500 µM): 0.533 | relative viability (ABC-1; first compound 5 µM): 0.215 | relative viability (ABC-1; first compound 15.81 µM): 0.189 | relative viability (ABC-1; first compound 50 µM): 0.189 | relative viability (ABC-1; first compound 158.11 µM): 0.179 | relative viability (ABC-1; first compound 500 µM): 0.207 | relative viability (NCI-H647; first compound 5 µM): 0.384 | relative viability (NCI-H647; first compound 15.81 µM): 0.244 | relative viability (NCI-H647; first compound 50 µM): 0.286 | relative viability (NCI-H647; first compound 158.11 µM): 0.0859 | relative viability (NCI-H647; first compound 500 µM): 0.021 | relative viability (NCI-H1395; first compound 5 µM): 0.691 | relative viability (NCI-H1395; first compound 15.81 µM): 0.632 | relative viability (NCI-H1395; first compound 50 µM): 0.653 | relative viability (NCI-H1395; first compound 158.11 µM): 0.752 | relative viability (NCI-H1395; first compound 500 µM): 0.612 | relative viability (NCI-H661; first compound 5 µM): 0.358 | relative viability (NCI-H661; first compound 15.81 µM): 0.324 | relative viability (NCI-H661; first compound 50 µM): 0.348 | relative viability (NCI-H661; first compound 158.11 µM): 0.331 | relative viability (NCI-H661; first compound 500 µM): 0.203 | relative viability (RERF-LC-KJ; first compound 5 µM): 0.536 | relative viability (RERF-LC-KJ; first compound 15.81 µM): 0.513 | relative viability (RERF-LC-KJ; first compound 50 µM): 0.454 | relative viability (RERF-LC-KJ; first compound 158.11 µM): 0.188 | relative viability (RERF-LC-KJ; first compound 500 µM): 0.0899 | relative viability (NCI-H1793; first compound 5 µM): 0.297 | relative viability (NCI-H1793; first compound 15.81 µM): 0.281 | relative viability (NCI-H1793; first compound 50 µM): 0.308 | relative viability (NCI-H1793; first compound 158.11 µM): 0.149 | relative viability (NCI-H1793; first compound 500 µM): 0.0274
